The text below walks through data of US11963960B2 (Flash Therapeutics, LLC, priority 2020, dated 2024).

Sequence of N-terminally GST-tagged HCK (75-526) (P08631 75-526): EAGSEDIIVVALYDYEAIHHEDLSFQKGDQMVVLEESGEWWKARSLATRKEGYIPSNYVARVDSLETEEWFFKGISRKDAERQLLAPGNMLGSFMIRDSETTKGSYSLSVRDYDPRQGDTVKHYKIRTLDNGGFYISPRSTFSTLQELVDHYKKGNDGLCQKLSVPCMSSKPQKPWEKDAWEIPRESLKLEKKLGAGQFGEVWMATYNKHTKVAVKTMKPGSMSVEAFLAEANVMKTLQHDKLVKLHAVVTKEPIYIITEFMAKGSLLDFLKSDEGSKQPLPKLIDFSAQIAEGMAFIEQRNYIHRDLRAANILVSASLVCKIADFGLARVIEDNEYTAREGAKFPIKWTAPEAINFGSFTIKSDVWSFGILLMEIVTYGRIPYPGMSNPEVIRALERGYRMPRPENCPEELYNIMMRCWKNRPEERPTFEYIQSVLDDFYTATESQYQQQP

For the experiment, the target named is N-terminally GST-tagged HCK (75-526) (Homo sapiens (Human), UniProt P08631). Nature of the experiment: HCK Kinase Assay (ProFluor Src-Family Kinase Assay). The experiment is classed as biochemical. The conditions noted are these: HCK inhibitory activity, 50 μM ATP; read-out: HCK Activity. The method, then:
The procedure of ProFluor Src-Family Kinase Assay (Promega, Cat. No. V1271) was then followed. To the reaction was added 5 μL Protease solution and the mixture was incubated for 60 minutes at room temperature (22-25° C.), followed by 5 μL Stabilizer solution. The fluorescence signal was read on an Envision multilabel plate reader (Perkin Elmer). The R110 was then read at an excitation wavelength of 485 nm and an emission wavelength of 530 nm. The AMC signal was read at an excitation wavelength of 355 nm and an emission wavelength of 460 nm.
As for `Nc1ncnc2c1c(-c1ccc(Oc3ccccc3)cc1)cn2[C@H]1CC[C@@H](N2CCC[C@H](N)C2)CC1` [Example 57, 7-((cis)-4-((S)-3-aminopiperidin-1-yl)cyclohexyl)-5-(4-phenoxyphenyl)-7H-pyrrolo[2,3-d]pyrimidin-4-amine], the IC50 is less than 50 nM.
In the case of `Nc1ncnc2c1c(-c1ccc(Oc3ccccc3)cc1)cn2[C@H]1CC[C@@H](N2CCC[C@@H](N)C2)CC1` [Example 58, 7-((cis)-4-((R)-3-aminopiperidin-1-yl)cyclohexyl)-5-(4-phenoxyphenyl)-7H-pyrrolo[2,3-d]pyrimidin-4-amine], the IC50 fell in the range of 50 to 250 nM.
As for `Nc1ncnc2c1c(-c1ccc(Oc3ccccc3)cc1)cn2[C@H]1CC[C@H](N2CCC[C@@H](N)C2)CC1` [Example 59, 7-((trans)-4-((R)-3-aminopiperidin-1-yl)cyclohexyl)-5-(4-phenoxyphenyl)-7H-pyrrolo[2,3-d]pyrimidin-4-amine], the IC50 was less than 50 nM.
For `CN[C@@H]1CCCN([C@H]2CC[C@H](n3cc(-c4ccc(Oc5ccccc5)cc4)c4c(N)ncnc43)CC2)C1` [Example 60, 7-((trans)-4-((R)-3-(methylamino)piperidin-1-yl)cyclohexyl)-5-(4-phenoxyphenyl)-7H-pyrrolo[2,3-d]pyrimidin-4-amine], the IC50 is less than 50 nM.
On to `CN[C@@H]1CCCN([C@H]2CC[C@@H](n3cc(-c4ccc(Oc5ccccc5)cc4)c4c(N)ncnc43)CC2)C1` [Example 61, 7-((cis)-4-((R)-3-(methylamino)piperidin-1-yl)cyclohexyl)-5-(4-phenoxyphenyl)-7H-pyrrolo[2,3-d]pyrimidin-4-amine], for which the IC50 was less than 50 nM.
Regarding `CN(C)[C@@H]1CCCN([C@H]2CC[C@H](n3cc(-c4ccc(Oc5ccccc5)cc4)c4c(N)ncnc43)CC2)C1` [Example 62, 7-((trans)-4-((R)-3-(dimethylamino)piperidin-1-yl)cyclohexyl)-5-(4-phenoxyphenyl)-7H-pyrrolo[2,3-d]pyrimidin-4-amine], the IC50 was less than 50 nM.
Take `Nc1ncnc2c1c(-c1ccc(Oc3ccccc3)cc1)cn2[C@H]1CC[C@H](N2CCSCC2)CC1` [Example 63, 5-(4-phenoxyphenyl)-7-((trans)-4-thiomorpholinocyclohexyl)-7H-pyrrolo[2,3-d]pyrimidin-4-amine]: the IC50 lay within 250 to 10000 nM.
In the case of `Nc1ncnc2c1c(-c1ccc(Oc3ccccc3)cc1)cn2[C@H]1CC[C@H](N2CCS(=O)(=O)CC2)CC1` [Example 65, 4-((trans)-4-(4-amino-5-(4-phenoxyphenyl)-7H-pyrrolo[2,3-d]pyrimidin-7-yl)cyclohexyl)thiomorpholine 1,1-dioxide], the IC50 is 50 to 250 nM.
Turning to `Nc1ncnc2c1c(-c1ccc(Oc3ccccc3)cc1)cn2[C@H]1CC[C@@H](N2CCS(=O)(=O)CC2)CC1` [Example 66, 4-((cis)-4-(4-amino-5-(4-phenoxyphenyl)-7H-pyrrolo[2,3-d]pyrimidin-7-yl)cyclohexyl)thiomorpholine 1,1-dioxide], the IC50 was 50 to 250 nM.
On to `CP1(=O)CCN([C@H]2CC[C@H](n3cc(-c4ccc(Oc5ccccc5)cc4)c4c(N)ncnc43)CC2)CC1` [Example 67, 1-((trans)-4-(4-amino-5-(4-phenoxyphenyl)-7H-pyrrolo[2,3-d]pyrimidin-7-yl)cyclohexyl)-4-methyl-1,4-azaphosphinane 4-oxide], for which the IC50 was in the range of 50 to 250 nM.
As to `CP1(=O)CCN([C@H]2CC[C@@H](n3cc(-c4ccc(Oc5ccccc5)cc4)c4c(N)ncnc43)CC2)CC1` [Example 68, 1-((cis)-4-(4-amino-5-(4-phenoxyphenyl)-7H-pyrrolo[2,3-d]pyrimidin-7-yl)cyclohexyl)-4-methyl-1,4-azaphosphinane 4-oxide], the IC50 was less than 50 nM.
Regarding `Nc1ncnc2c1c(-c1ccc(Oc3ccccc3)cc1)cn2[C@H]1CC[C@H](N2CCC(S(N)(=O)=O)CC2)CC1` [Example 69, 1-((trans)-4-(4-amino-5-(4-phenoxyphenyl)-7H-pyrrolo[2,3-d]pyrimidin-7-yl)cyclohexyl)piperidine-4-sulfonamide], the IC50 lay in the range of 50 to 250 nM.
Consider `Nc1ncnc2c1c(-c1ccc(Oc3ccccc3)cc1)cn2[C@H]1CC[C@@H](N2CCC(S(N)(=O)=O)CC2)CC1` [Example 70, 1-((cis)-4-(4-amino-5-(4-phenoxyphenyl)-7H-pyrrolo[2,3-d]pyrimidin-7-yl)cyclohexyl)piperidine-4-sulfonamide], for which the IC50 was 50 to 250 nM.
On to `CN(C)[C@H]1CN([C@H]2CC[C@H](n3cc(-c4ccc(Oc5ccccc5)cc4)c4c(N)ncnc43)CC2)C[C@H]1O` [Example 71, (3R,4S)-1-((trans)-4-(4-amino-5-(4-phenoxyphenyl)-7H-pyrrolo[2,3-d]pyrimidin-7-yl)cyclohexyl)-4-(dimethylamino)pyrrolidin-3-ol], for which the IC50 is less than 50 nM.
For the molecule `CN(C)[C@H]1CN([C@H]2CC[C@@H](n3cc(-c4ccc(Oc5ccccc5)cc4)c4c(N)ncnc43)CC2)C[C@H]1O` [Example 72, (3R,4S)-1-((cis)-4-(4-amino-5-(4-phenoxyphenyl)-7H-pyrrolo[2,3-d]pyrimidin-7-yl)cyclohexyl)-4-(dimethylamino)pyrrolidin-3-ol], the IC50 is less than 50 nM.
In the case of `CN(C)[C@@H]1CN([C@H]2CC[C@H](n3cc(-c4ccc(Oc5ccccc5)cc4F)c4c(N)ncnc43)CC2)C[C@H]1O` [Example 73, (3R,4R)-1-((trans)-4-(4-amino-5-(2-fluoro-4-phenoxyphenyl)-7H-pyrrolo[2,3-d]pyrimidin-7-yl)cyclohexyl)-4-(dimethylamino)pyrrolidin-3-ol], the IC50 is less than 50 nM.
Consider `CN(C)[C@@H]1CN([C@H]2CC[C@@H](n3cc(-c4ccc(Oc5ccccc5)cc4F)c4c(N)ncnc43)CC2)C[C@H]1O` [Example 74, (3R,4R)-1-((cis)-4-(4-amino-5-(2-fluoro-4-phenoxyphenyl)-7H-pyrrolo[2,3-d]pyrimidin-7-yl)cyclohexyl)-4-(dimethylamino)pyrrolidin-3-ol], for which the IC50 was in the range of 50 to 250 nM.
Then `Nc1ncnc2c1c(-c1ccc(Oc3ccccc3)cc1)cn2[C@H]1CC[C@H](N2C[C@@H](O)[C@@H](O)C2)CC1` [Example 75, (3R,4S)-1-((trans)-4-(4-amino-5-(4-phenoxyphenyl)-7H-pyrrolo[2,3-d]pyrimidin-7-yl)cyclohexyl)pyrrolidine-3,4-diol], with 50 to 250 nM.
Take `Nc1ncnc2c1c(-c1ccc(Oc3ccccc3)cc1)cn2[C@H]1CC[C@@H](N2C[C@@H](O)[C@@H](O)C2)CC1` [Example 76, (3R,4S)-1-((cis)-4-(4-amino-5-(4-phenoxyphenyl)-7H-pyrrolo[2,3-d]pyrimidin-7-yl)cyclohexyl)pyrrolidine-3,4-diol]: the IC50 was in the range of 50 to 250 nM.
Then `Nc1ncnc2c1c(-c1ccc(Oc3ccccc3)cc1)cn2[C@H]1CC[C@H](N2CC(N)C2)CC1` [Example 77, 7-((trans)-4-(3-aminoazetidin-1-yl)cyclohexyl)-5-(4-phenoxyphenyl)-7H-pyrrolo[2,3-d]pyrimidin-4-amine], with less than 50 nM; and `Nc1ncnc2c1c(-c1ccc(Oc3ccccc3)cc1)cn2[C@H]1CC[C@@H](N2CC(N)C2)CC1` [Example 78, 7-((cis)-4-(3-aminoazetidin-1-yl)cyclohexyl)-5-(4-phenoxyphenyl)-7H-pyrrolo[2,3-d]pyrimidin-4-amine], with 250 to 10000 nM.
Consider `CN1CC2(C1)CN([C@H]1CC[C@H](n3cc(-c4ccc(Oc5ccccc5)cc4)c4c(N)ncnc43)CC1)C2` [Example 79, 7-((trans)-4-(6-methyl-2,6-diazaspiro[3.3]heptan-2-yl)cyclohexyl)-5-(4-phenoxyphenyl)-7H-pyrrolo[2,3-d]pyrimidin-4-amine], for which the IC50 lay within 50 to 250 nM.
For the molecule `CN1CC2(C1)CN([C@H]1CC[C@@H](n3cc(-c4ccc(Oc5ccccc5)cc4)c4c(N)ncnc43)CC1)C2` [Example 80, 7-((cis)-4-(6-methyl-2,6-diazaspiro[3.3]heptan-2-yl)cyclohexyl)-5-(4-phenoxyphenyl)-7H-pyrrolo[2,3-d]pyrimidin-4-amine], the IC50 lay within 250 to 10000 nM.
`Nc1ncn([C@H]2CC[C@H](n3cc(-c4ccc(Oc5ccccc5)cc4)c4c(N)ncnc43)CC2)n1` [Example 81, 7-((trans)-4-(3-amino-1H-1,2,4-triazol-1-yl)cyclohexyl)-5-(4-phenoxyphenyl)-7H-pyrrolo [2,3-d]pyrimidin-4-amine]: the IC50 is less than 50 nM.
For the molecule `Nc1ncn([C@H]2CC[C@@H](n3cc(-c4ccc(Oc5ccccc5)cc4)c4c(N)ncnc43)CC2)n1` [Example 82, 7-((cis)-4-(3-amino-1H-1,2,4-triazol-1-yl)cyclohexyl)-5-(4-phenoxyphenyl)-7H-pyrrolo[2,3-d]pyrimidin-4-amine], the IC50 is less than 50 nM.
As to `Nc1ncnc2c1c(-c1ccc(Oc3ccccc3)cc1)cn2[C@H]1CC[C@H](NC2CNC2)CC1` [Example 83, 7-((trans)-4-(azetidin-3-ylamino)cyclohexyl)-5-(4-phenoxyphenyl)-7H-pyrrolo[2,3-d]pyrimidin-4-amine], the IC50 lay in the range of 50 to 250 nM.
Turning to `Nc1ncnc2c1c(-c1ccc(Oc3ccccc3)cc1)cn2[C@H]1CC[C@@H](NC2CNC2)CC1` [Example 84, 7-((cis)-4-(azetidin-3-ylamino)cyclohexyl)-5-(4-phenoxyphenyl)-7H-pyrrolo[2,3-d]pyrimidin-4-amine], the IC50 was 50 to 250 nM.
On to `Nc1ncnc2c1c(-c1ccc(Oc3ccccc3)cc1)cn2[C@H]1CC[C@H](NCc2n[nH]c(=O)[nH]2)CC1` [Example 85, 3-((((trans)-4-(4-amino-5-(4-phenoxyphenyl)-7H-pyrrolo[2,3-d]pyrimidin-7-yl)cyclohexyl)amino)methyl)-1H-1,2,4-triazol-5(4H)-one], for which the IC50 was less than 50 nM.
Turning to `CN1CCN([C@H]2CC[C@H](n3c(Br)c(-c4ccc(Oc5ccccc5)cc4)c4c(N)ncnc43)CC2)CC1` [Example 86, 6-Bromo-7-((trans)-4-(4-methylpiperazin-1-yl)cyclohexyl)-5-(4-phenoxyphenyl)-7H-pyrrolo[2,3-d]pyrimidin-4-amine], the IC50 was 50 to 250 nM.
